Measured values from PMC5602538, “Assessment of the Drug Interaction Potential of Unconjugated and GalNAc3-Conjugated 2′-MOE-ASOs” (Molecular Therapy. Nucleic Acids, 2017).
{GalNAc3} = trishexylamino-C6 triantennary GalNAc conjugate; e = 2'-O-(2-methoxyethyl) (MOE); d = 2'-deoxy (DNA)

How the values were obtained:
Assay type in all cases: in vitro ADME
[1] = test system: T1, OAT1; experiment: OAT1 substrate uptake study in MDCK cells; details: 10 μM ASO
T1 construct: expressed in transfected cells; host or cells: MDCK-II
Description: (§1) A 96-well cell culture plate containing a monolayer of MDCK-II cells grown on a permeable support and a corresponding receiver tray was used. The basolateral compartment of the culture plate and wells were washed with warm HBSS three times, with wells of the culture plate serving as the apical compartment. The wash was aspirated by adding 150 μL of 37°C HBSS to both compartments. Plates were incubated at 37°C with orbital shaking at 60 rpm for 15 min for OAT1, OAT3, OCT1, OCT2, OATP1B1, and OATP1B3 (±5 min). The pre-incubation buffer from both compartments was aspirated and 150 μL of the following was added to the basal compartment. For the probe substrate transport assay, HBSS in each well contained one of following probe substrates (positive control for transport), OCT1, 2 μM [^3H]-MPP^+; OCT2, 10 μM [^14C]-metformin; OAT1, 2 μM [^3H]-p-aminohippurate; OAT3, 10 μM [^3H]-p-aminohippurate; OATP1B1, 2 μM [^3H]-estradiol-17 β-D-glucuronide; and OATP1B3, 2 μM [^3H]-cholecystokinin octapeptide (CCK-8). […] Inhibition studies contained HBSS in each well, the probe substrate, and 100 μM of each test article, whereas substrate studies contained HBSS in each well and 10 μM of each test article. […] Samples containing probe substrate were added to 200 μL of scintillation fluid and counted on a 1450 Microbeta (PerkinElmer), whereas samples containing the test article were kept frozen. Test article concentrations, including control samples, were evaluated by an LC-MS method.
(§2) Signal to noise for probe substrates was calculated by dividing the uptake of the probe substrate in transporter-expressing cells by the uptake of probe substrate in control cells not expressing the transporter of interest. Percent inhibition was calculated by dividing the net-transporter-mediated substrate uptake in the presence of the test article or the reference inhibitor by the net-transporter-mediated substrate uptake in the absence of the inhibitor according to the equation: %inhibition=100−(100×(transporter-mediateduptake)withinhibitor/(transporter-mediateduptake)withoutinhibitor).

[2] = test system: T2, OAT3; experiment: OAT3 substrate uptake study in MDCK cells; details: 10 μM ASO
T2 construct: expressed in transfected cells; host or cells: MDCK-II
Description: as §1, §2

[3] = test system: T3, OCT1; experiment: OCT1 substrate uptake study in MDCK cells; details: 10 μM ASO
T3 construct: expressed in transfected cells; host or cells: MDCK-II
Description: as §1, §2

[4] = test system: T4, OATP1B1; experiment: OATP1B1 substrate uptake study in MDCK cells; details: 10 μM ASO
T4 construct: expressed in transfected cells; host or cells: MDCK-II
Description: as §1, §2

[5] = test system: T5, OATP1B3; experiment: OATP1B3 substrate uptake study in MDCK cells; details: 10 μM ASO
T5 construct: expressed in transfected cells; host or cells: MDCK-II
Description: as §1, §2

[6] = test system: T6, BCRP; experiment: BCRP substrate study, bi-directional flux in MDCK cells; details: 10 μM ASO, Papp B to A / Papp A to B
T6 construct: expressed in transfected cells; host or cells: MDCK-II cells
Description: MDCK-MDR1 cells and MDCK-II cells transfected with BCRP were washed with HBSS at 37°C. Wells of the culture plate served as the apical compartment, and 150 μL of HBSS solutions was added to the apical wells. These solutions also contain one of the following: vehicle (for probe substrate controls), 100 μM test article (for test article inhibition experiments), 1 μM Ko143 (for BCRP inhibition), or 3 μM elacridar (for P-gp inhibition). A 96-well receiver tray was prepared with each well containing 300 μL of buffer solution corresponding to the apical wells. Receiver tray wells served as the basal compartment. The plate and receiver tray were assembled and incubated at 37°C for 30 min. The solution was then aspirated from the apical compartment and the 96-well plate was removed from the receiver tray. Donor and receiver wells for inhibition or donor (containing substrate) and receiver (without substrate) wells for substrate studies were then prepared for bi-directional flux studies. For the probe substrate transport assays, HBSS in each donor well contained one of the following probe substrates: BCRP, 2 μM [^3H]-prazosin; or P-gp, 100 nM [^3H]-quinidine. For positive control inhibition assays, HBSS contained the reference inhibitor in both donor and receiver wells, with the probe substrate only in donor wells. […] These samples were counted on a 1450 Microbeta (PerkinElmer). For samples containing test articles, samples were quantitated using LC-MS.
For BCRP and P-gp, apparent permeability Papp was determined using the equation Papp=(Vr/(A×C0))×(Cr/Δt) whereby Papp is the apparent permeability, Vr is the volume of the receiver compartment (mL), C0 is the initial concentration of the donor solution, A is the monolayer area (cm^2), Cr is the receiver well concentration at the end of the incubation, and Δt represents the change in time from t = 0 (s). The efflux ratio (ER) was determined by dividing Papp in the B→A direction by that in the A→B direction as: ER=Papp(B→A)/Papp(A→B).

ISIS 304801: 20-mer (5-10-5) 2′-MOE gapmer PS backbone antisense inhibitor of apoC-III, sequence AGCTTCTTGTCCAGCTTTAT (sugars from the 5' end e5 d10 e5, all phosphorothioate, methylation of C not given here)
≤ 2.0: Efflux ratio, BCRP [6]
< 2 fold: OAT1-mediated uptake relative to corresponding controls [1] | OAT3-mediated uptake relative to corresponding controls [2] | OCT1-mediated uptake relative to corresponding controls [3] | OATP1B1-mediated uptake relative to corresponding controls [4] | OATP1B3-mediated uptake relative to corresponding controls [5]

ISIS 420915: 20-mer 2′-MOE gapmer PS backbone antisense inhibitor of transthyretin, sequence TCTTGGTTACATGAAATCCC (all phosphorothioate, sugars by position and methylation of C not given here; 2'-MOE gapmer)
≤ 2.0: Efflux ratio, BCRP [6]
< 2 fold: OAT1-mediated uptake relative to corresponding controls [1] | OAT3-mediated uptake relative to corresponding controls [2] | OCT1-mediated uptake relative to corresponding controls [3] | OATP1B1-mediated uptake relative to corresponding controls [4] | OATP1B3-mediated uptake relative to corresponding controls [5]

ISIS 681257: 20-mer 2′-MOE gapmer PS/PO mixed backbone ASO conjugated to 5′-trishexylamino GalNAc3, targets Lp(a), sequence TGCTCCGTTGGTGCTTGTTC (5' {GalNAc3}, sugars by position and backbone not given here; 2'-MOE gapmer with mixed PS/PO backbone)
≤ 2.0: Efflux ratio, BCRP [6]
< 2 fold: OAT1-mediated uptake relative to corresponding controls [1] | OAT3-mediated uptake relative to corresponding controls [2] | OCT1-mediated uptake relative to corresponding controls [3] | OATP1B1-mediated uptake relative to corresponding controls [4] | OATP1B3-mediated uptake relative to corresponding controls [5]
